Measured values: patent US20220323594A1, “LIPIDATED CATIONIC PEPTIDE-PEG COMPOSITIONS FOR NUCLEIC ACID DELIVERY” (NUTCRACKER THERAPEUTICS, INC., priority 2019, published 2022)
Read-outs that look alike come from different tables or passages of the source.

Assays:
[1] = mRNA encapsulation by fluorescence of Qubit RNA HS dye before and after lysis with Triton X-100; assay type: physicochemical; settings: percentage of mRNA encapsulation; Fluc mRNA/peptoid formulation, 5:1 mass ratio
Protocol: (§1) The exemplary amino lipidated cationic peptoids described in Example 2 were combined with firefly luciferase (Fluc) mRNA to form nanoparticle compositions to be evaluated for therapeutic and/or prophylactic purposes in vitro or in vivo. The formulations were prepared according to the protocol of Example 3 and mixed by simple pipetting. The mRNA/peptoid formulation at a 5:1 mass ratio of peptoid:cargo were evaluated by dynamic light scattering (DLS) in order to determine the volume average particle size/diameter (nm) of the mRNA/peptoid complex and the size polydispersity index (PDI) within the formulation. The percentage of mRNA encapsulation for each formulation of the exemplary compounds were determined by fluorescence of the Qubit RNA HS (Invitrogen) dye before and after lysis of particles by Triton X-100.

[2] = Dynamic light scattering (DLS) of mRNA/peptoid formulations: particle size and polydispersity; assay type: physicochemical; settings: Fluc mRNA/peptoid formulation; for Size PDI: size polydispersity index by DLS, 5:1 mass ratio; for Size (nm): volume average particle size/diameter by DLS, 5:1 mass ratio peptoid:cargo
Protocol: as §1, with “To prepare nanoparticle formulations, the amino lipidated peptoid is mixed by pipetting with nucleic acid at a mass ratio between approximately 1:1 (peptoid:cargo) and 20:1. Prior to formulation, amino lipidated peptoid and nucleic acid cargo were diluted in ethanol and acidic buffer (PBS adjusted to pH 5.5 with 0.1 M HCl) respectively to a volume ratio of 1:3 and to target a final cargo concentration of approximately 0.05 mg/mL to 0.2 mg/mL. The exemplary” for “The exemplary”

HeLa cells [3] = test: In vitro Fluc expression with variable peptoid:mRNA mass ratio, 2% DMG-PEG2000; assay type: cell-based; settings: 24 h; for Observed Luciferase Expression (RLU) for Given Formulation Mass Ratio 2:1: 2% (w/w) DMG-PEG2000, peptoid:mRNA 2:1; for Observed Luciferase Expression (RLU) for Given Formulation Mass Ratio 3.5:1: 2% (w/w) DMG-PEG2000, peptoid:mRNA 3.5:1; for Observed Luciferase Expression (RLU) for Given Formulation Mass Ratio 5:1: 2% (w/w) DMG-PEG2000, peptoid:mRNA 5:1; for Observed Luciferase Expression (RLU) for Given Formulation Mass Ratio 7.5:1: 2% (w/w) DMG-PEG2000, peptoid:mRNA 7.5:1
Protocol: The charge ratio dependence of amino lipidated peptoid delivery vehicles was evaluated by formulating particles between Fluc mRNA and delivery vehicles at varying mass ratios. Formulations were varied between 2:1 and 7.5:1 peptoid:mRNA (w/w) ratios (2:1, 3.5:1, 5:1 and 7.5:1). In addition, the role of DMG-PEG2000 was also explored with the mass ratios, either by excluding DMG-PEG2000 or incorporating DMG-PEG2000 at 2% (w/w) relative to amino lipidated peptoid. Fluc expression from these formulations was measured in HeLa cells following treatment for 24 hours. […] FIGS. 6B and 6C show plots of the average bioluminescence (RLU) for HeLa cells treated with the formulations of exemplary amino lipidated cationic peptoid compounds 1-36, all formulated with 2% w/w DMG-PEG2000.

[4] = MTT viability assay after treatment with Fluc mRNA/amino lipidated peptoid formulations; assay type: cell-based; settings: human, HeLa cells
Protocol: Cellular viability was measured following treatment with Fluc mRNA/amino lipidated peptoid formulations by a traditional MTT viability assay. […] In this assay, cells were first treated with peptoid formulations at a final mRNA concentration of 100 ng/well for 8 hours. Cells were then left to grow for 48 hours, after which time they were exposed to 1.5 mg/mL 3-(4,5-dimethylthiazol-2-yl)-2,5-diphenyltetrazolium bromide (MTT) for 2 hours, then lysed using a solubilizing solution of 10% Triton-X 100 in acidic isopropanol (0.1N HCl). The signal corresponding to reduced formazan was normalized to untreated cells to provide a relative viability of each treated condition. […] In general, nearly all conditions maintained at least 80% viability with the only exceptions being formulations of compound 5, 34, and 35.

HeLa cells [5] = test: In vitro expression of firefly luciferase (Fluc) after treatment with Fluc mRNA/amino lipidated peptoid formulations, no PEG or 2% DMG-PEG2000; assay type: cell-based
Protocol: The efficacy of mRNA/amino lipidated peptoid formulations was evaluated in vitro based on their ability to deliver the firefly luciferase (Fluc) reporter gene to cultured cells. Amino lipidated peptoids were combined with Fluc mRNA at a 5:1 w/w ratio, and the resulting particles were added to cultured HeLa cells at a dose of 100 ng/well (in 100 μL total volume). The resulting luciferase expression (RLU) was measured by a luminescence plate reader after 6 hours and 24 hours of treatment. […] In addition to evaluating nanoparticle complexes formed between mRNA cargos and amino lipidated peptoids alone, multicomponent formulations containing a small amount of PEG-lipid DMG-PEG2000 were also tested for in vitro Fluc mRNA delivery. In these formulations, DMG-PEG2000 was pre-mixed with candidate peptoid at an overall 2% incorporation (w/w), while maintaining the same 5:1 mass ratio of peptoid:mRNA used previously.

[6] = no PEG, peptoid:Fluc mRNA 5:1 w/w, 100 ng/well, 6 h of treatment
[7] = no PEG, peptoid:Fluc mRNA 5:1 w/w, 100 ng/well, 24 h of treatment
[8] = with 2% (w/w) DMG-PEG2000, peptoid:mRNA 5:1, 6 h after treatment
[9] = with 2% (w/w) DMG-PEG2000, peptoid:mRNA 5:1, 24 h after treatment

SMILES	% Encapsulation [1] [%]	Size PDI [2]	Size (nm) [2] [nm]	Observed Luciferase Expression (RLU) for Given Formulation Mass Ratio 2:1 (HeLa cells [3]) [RLU]	Observed Luciferase Expression (RLU) for Given Formulation Mass Ratio 3.5:1 (HeLa cells [3]) [RLU]	Observed Luciferase Expression (RLU) for Given Formulation Mass Ratio 5:1 (HeLa cells [3]) [RLU]	Observed Luciferase Expression (RLU) for Given Formulation Mass Ratio 7.5:1 (HeLa cells [3]) [RLU]	viability at 8 h, 500 ng/well ([4]; MTT, 2% (w/w) DMG-PEG2000, 5:1 mass ratio, 100 ng/well mRNA for 8 h then 48 h growth, normalized to untreated cells, read-out: Relative Viability (%) 2% PEG) [%]	viability at 8 h, 500 ng/well ([4]; MTT, formulation alone (no PEG), 5:1 mass ratio, 100 ng/well mRNA for 8 h then 48 h growth, normalized to untreated cells, read-out: Relative Viability (%) No PEG) [%]	Luciferase Expression (RLU) 6 h (HeLa cells [5]; [6]) [RLU]	Luciferase Expression (RLU) 24 h (HeLa cells [5]; [7]) [RLU]	Luciferase Expression (RLU) 6 h (HeLa cells [5]; [8]) [RLU]	Luciferase Expression (RLU) 24 h (HeLa cells [5]; [9]) [RLU]	viability at 8 h, 500 ng/well ([4]; Relative Viability (%) 2% PEG) [%]	viability at 8 h, 500 ng/well ([4]; Relative Viability (%) No PEG) [%]
CCCCCCCCCCN(CC(N)=O)C(=O)CN(CCCCCCCCCC)C(=O)CN(CCCCCCCCCC)C(=O)CN(CCc1ccccc1)C(=O)CN(CCc1ccccc1)C(=O)CN(CCN)C(=O)CN(CCc1ccccc1)C(=O)CN(CCc1ccccc1)C(=O)CN(CCN)C(=O)CN(CCc1ccccc1)C(=O)CN(CCc1ccccc1)C(=O)CNCCN [Compound 7]	88.4	0.177	296.7	1.61E+04	1.43E+04	2.20E+04	5.92E+03	96	78	6.45E+03	9.71E+03	2.77E+03	1.81E+03		
CCCCCCCCCCCCN(CC(N)=O)C(=O)CN(CCCCCCCCCCCC)C(=O)CN(CCc1ccc(OC)cc1)C(=O)CN(CCc1ccc(OC)cc1)C(=O)CN(CCN)C(=O)CN(CCc1ccc(OC)cc1)C(=O)CN(CCc1ccc(OC)cc1)C(=O)CN(CCN)C(=O)CN(CCc1ccc(OC)cc1)C(=O)CN(CCc1ccc(OC)cc1)C(=O)CNCCN [Compound 4]	99.0	0.191	326.7	3.27E+03	1.32E+03	7.84E+03	1.14E+03			1.96E+02	1.13E+02	3.16E+02	3.09E+02	89.7	90.4
CCCCCCCCCCN(CC(N)=O)C(=O)CN(CCCCCCCCCC)C(=O)CN(CCc1ccccc1)C(=O)CN(CCN)C(=O)CN(CCc1ccccc1)C(=O)CN(CCN)C(=O)CN(CCc1ccccc1)C(=O)CNCCN [Compound 13]	90.4	0.447	822.6	2.68E+01	1.74E+01	1.39E+02	5.36E+00			3.67E+00	9.67E+00	3.27E+01	2.67E+00	85.9	90.2
CCCCCCCCCCN(CC(N)=O)C(=O)CN(CCCCCCCCCC)C(=O)CN(CCCCCCCCCC)C(=O)CN(CCCCCCCCCC)C(=O)CN(CCc1ccccc1)C(=O)CN(CCc1ccccc1)C(=O)CN(CCNC)C(=O)CN(CCc1ccccc1)C(=O)CN(CCc1ccccc1)C(=O)CN(CCNC)C(=O)CN(CCc1ccccc1)C(=O)CN(CCc1ccccc1)C(=O)CNCCNC [Compound 25]	8.4	0.021	773.3	3.86E+02	8.41E+03	5.03E+03	5.66E+03			3.93E+02	2.07E+03	1.81E+03	7.30E+02	85.9	77.9

More lines, main results first:

% Encapsulation [1] [%]	Size PDI [2]	Size (nm) [2] [nm]	SMILES	Observed Luciferase Expression (RLU) for Given Formulation Mass Ratio 2:1 (HeLa cells [3]) [RLU]	Observed Luciferase Expression (RLU) for Given Formulation Mass Ratio 3.5:1 (HeLa cells [3]) [RLU]	Observed Luciferase Expression (RLU) for Given Formulation Mass Ratio 5:1 (HeLa cells [3]) [RLU]	Observed Luciferase Expression (RLU) for Given Formulation Mass Ratio 7.5:1 (HeLa cells [3]) [RLU]	viability at 8 h, 500 ng/well ([4]; MTT, 2% (w/w) DMG-PEG2000, 5:1 mass ratio, 100 ng/well mRNA for 8 h then 48 h growth, normalized to untreated cells, read-out: Relative Viability (%) 2% PEG) [%]	viability at 8 h, 500 ng/well ([4]; MTT, formulation alone (no PEG), 5:1 mass ratio, 100 ng/well mRNA for 8 h then 48 h growth, normalized to untreated cells, read-out: Relative Viability (%) No PEG) [%]	Luciferase Expression (RLU) 6 h (HeLa cells [5]; [6]) [RLU]	Luciferase Expression (RLU) 24 h (HeLa cells [5]; [7]) [RLU]	Luciferase Expression (RLU) 6 h (HeLa cells [5]; [8]) [RLU]	Luciferase Expression (RLU) 24 h (HeLa cells [5]; [9]) [RLU]	viability at 8 h, 500 ng/well ([4]; Relative Viability (%) 2% PEG) [%]	viability at 8 h, 500 ng/well ([4]; Relative Viability (%) No PEG) [%]
82.0	0.048	435.7	CCCCCCCCCCN(CC(N)=O)C(=O)CN(CCCCCCCCCC)C(=O)CN(CCc1ccccc1)C(=O)CN(CCc1ccccc1)C(=O)CN(CC1CCNCC1)C(=O)CN(CCc1ccccc1)C(=O)CN(CCc1ccccc1)C(=O)CN(CC1CCNCC1)C(=O)CN(CCc1ccccc1)C(=O)CN(CCc1ccccc1)C(=O)CNCC1CCNCC1 [Compound 33]	1.76E+04	6.62E+02	7.46E+02	3.12E+02			4.61E+03	1.14E+04	4.64E+02	5.17E+02	98	99.4
71.5	0.127	374.4	CCCCCCCCCCN(CC(N)=O)C(=O)CN(CCCCCCCCCC)C(=O)CN(CCc1ccccc1)C(=O)CN(CCc1ccccc1)C(=O)CN(CC1CCCN1)C(=O)CN(CCc1ccccc1)C(=O)CN(CCc1ccccc1)C(=O)CN(CC1CCCN1)C(=O)CN(CCc1ccccc1)C(=O)CN(CCc1ccccc1)C(=O)CNCC1CCCN1 (stereo not drawn) [Compound 36]	9.24E+02	4.18E+02	5.17E+02	6.71E+02			9.34E+03	7.78E+03	3.36E+02	7.45E+02	108	93.6
